Measurements reported in patent publication US20250213542A1, “DEVICES AND METHODS FOR DELIVERING SYNERGISTIC ACTIVE AGENTS TO TARGET SITES” (IRRIMAX Corporation, priority 2023, published 2025).
Read-outs that look alike come from different tables or passages of the source.

What was measured:
Format in all cases: cell-based
[1] = test system: P. aeruginosa (ATCC 15442); assay: Minimum inhibitory concentration determination, serial 2-fold dilution; conditions: Pseudomonas aeruginosa, ATCC15442, read-out: Average Growth Inhibition (%)
Procedure: (§1) The minimal inhibitory concentration (MIC, the minimum inhibitory concentration required for 90% growth reduction) of octenidine was determined against S. aureus (ATCC 6538), P. aeruginosa (ATCC 15442), and E. coli (ATCC BAA 1427) by serial 2-fold dilution experiments. A solution of chlorhexidine (0.025% w/w) was used as a positive control and comparator.

[2] = test system: S. aureus (ATCC 6538); assay: as above; conditions: Staphylococcus aureus, ATCC6538, read-out: Average Growth Inhibition (%)
Procedure: as §1

[3] = test system: E. coli (ATCC BAA 1427); assay: as above; conditions: Escherichia coli, BAA1427, 250 μg/mL (0.025% w/w), positive control, read-out: Average Growth Inhibition (%)
Procedure: as §1

[4] = test system: P. aeruginosa (ATCC 15442); assay: Minimal bactericidal concentration determination, serial 2-fold dilution; conditions: 250 μg/mL (0.025% w/w), positive control
Procedure: (§2) The minimal bactericidal concentration (MBC) of octenidine dihydrochloride was determined against S. aureus (ATCC 6538), P. aeruginosa (ATCC 15442), and E. coli (ATCC BAA 1427) by serial 2-fold dilution experiments. A solution of chlorhexidine (0.025% w/w) was used as a positive control and comparator.

[5] = test system: S. aureus (ATCC 6538); assay: as above; conditions: 250 μg/mL (0.025% w/w), positive control
Procedure: as §2

[6] = test system: E. coli (ATCC BAA 1427); assay: as above
Procedure: as §2

[7] = test system: E. coli; assay: Chequerboard assay, FIC and synergy analysis; conditions: Escherichia coli
Procedure: (§3) Chlorhexidine gluconate (CHG) and octenidine dihydrochloride (OCT) were analyzed by chequerboard assay with each test organism to determine potential additive, synergistic, and antagonistic activity. The test organisms S. aureus, P. aeruginosa, and E. coli were tested at ranges of chlorhexidine gluconate (0.122-15.625 μg/ml, 1.25-160 μg/ml, and 0.125-16 μg/ml, respectively) and octenidine dihydrochloride (0.029-3.75 μg/mL, 0.029-3.75 μg/mL, and 0.029-3.75 μg/mL, respectively). FIC was calculated by the following Equation 2: […]

[8] = test system: S. aureus; assay: Chequerboard assay, FIC and synergy analysis; conditions: Staphylococcus aureus
Procedure: as §3

[9] = test system: P. aeruginosa; assay: Chequerboard assay, FIC and synergy analysis; conditions: Pseudomonas aeruginosa
Procedure: as §3

[10] = in presence of OCT, read-out: MIC of CHG in Presence of OCT

## N=C(NCCCCCCNC(=N)NC(=N)Nc1ccc(Cl)cc1)NC(=N)Nc1ccc(Cl)cc1 [Chlorhexidine gluconate, 1-[amino-[6-[amino-[amino-(4-chlorophenyl)amino-methylidene]amino-methylidene]aminohexylimino]methyl]imino-N-(4-chlorophenyl)-methanediamine; (2R,3S,4R,5R)-2,3,4,5,6-pentahydroxyhexanoic acid.]
[1]
  inhibition at 250 µg/mL: 81%
[2]
  inhibition at 250 µg/mL: 121%
[3]
  inhibition at 250 µg/mL: 63%
[4]
  CFU/mL: 0 CFU/mL
  Number of Colonies: 0
[4]; listed as chlorhexidine
  Number of Colonies: no colonies
[5]
  CFU/mL: 0 CFU/mL
  Number of Colonies: 0
[5]; listed as chlorhexidine
  Number of Colonies: no colonies
[6]
  CFU/mL: 0 CFU/mL
  Number of Colonies: 0
[6]; E. coli (ATCC BAA 1427), 250 μg/mL (0.025% w/w), positive control
  Number of Colonies: no colonies
[7]; [10]
  MIC: 8 µg/mL
[7]; read-out: MIC of CHG Alone
  MIC: 16 µg/mL
[8]; [10]
  MIC: 2 µg/mL
[8]; read-out: MIC of CHG Alone
  MIC: 4 µg/mL
[9]; read-out: MIC of CHG Alone (μg/mL)
  MIC: 32 µg/mL
[9]; read-out: MIC of CHG in Presence of OCT (μg/mL)
  MIC: 16 µg/mL
